Where a SMILES comes first, the peptide text is derived from it.

The target in this test is T1, Rhombotin-2 (Homo sapiens, UniProt P25791).
T1 sequence (P25791 whole entry): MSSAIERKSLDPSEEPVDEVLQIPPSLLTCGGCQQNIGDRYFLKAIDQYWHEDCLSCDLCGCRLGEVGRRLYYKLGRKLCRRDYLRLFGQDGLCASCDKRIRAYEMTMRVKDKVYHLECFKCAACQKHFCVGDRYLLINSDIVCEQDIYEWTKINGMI
Kind of test: Binding affinity to GST-tagged LMO2 (unknown origin) by surface plasmon resonance analysis. Background: In SPR one partner is held on a chip, and binding of the other changes the refractive index at the surface.

As for `CC[C@H](C)[C@H](NC(=O)[C@@H](NC(=O)[C@H](Cc1cnc[nH]1)NC(=O)[C@H](CC(C)C)NC(=O)[C@H](CCCNC(=N)N)NC(=O)[C@H](CO)NC(=O)[C@H](CCC(N)=O)NC(=O)[C@@H](N)CO)[C@@H](C)O)C(=O)N[C@@H](CC(C)C)C(=O)N[C@@H](CS)C(=O)N[C@@H](Cc1cnc[nH]1)C(=O)N[C@@H](CCC(=O)O)C(=O)N[C@@H](CS)C(=O)N[C@H](C(=O)N[C@H](C(=O)N[C@@H](CO)C(=O)N[C@@H](Cc1ccccc1)C(=O)N[C@@H](CC(C)C)C(=O)N[C@@H](CO)C(=O)N[C@@H](CC(C)C)C(=O)O)[C@@H](C)O)C(C)C` (H-SQSRLHTILCHECVTSFLSL-OH), the Kd (as a rule, the free concentration of one partner at which half of the binding sites on the other are occupied at equilibrium, for simple one-to-one binding) was determined as 29 nM. This counts as double-digit nanomolar.

Values taken from ChEMBL document CHEMBL3217455, “Peptides: minimal drug surrogates to interrogate and interfere with protein function” (Medchemcomm, 2013).
